Where two headings read alike, the source gives them in different places.
Target: T1, T7 RNA polymerase (Escherichia phage T7, UniProt P00573)
T1 construct: purchased Thermo Fisher Scientific
Type: biochemical
Text: A DNA sequence was introduced into a modified pUC19 derived vector backbone to comprise a 5′-UTR with a ribozyme cleavage site (the HSD17B4 5′ UTR), a 3′-UTR, a histone-stem-loop structure and a stretch of adenine nucleotides (A100), at the 3′-terminal end. The obtained plasmid DNA was transformed and propagated in bacteria using common protocols and plasmid DNA was extracted, purified, and enzymatically linearized using a restriction enzyme. The obtained linearized plasmid DNA was used for RNA in vitro transcription as outlined next to obtain the mRNA with the sequence shown in SEQ ID NO: 1.
Linearized plasmid DNA template (50 μg/ml) was transcribed at 37° C. for 3-5 hours in 80 mM HEPES/KOH, pH 7.5, 24 mM MgCl2, 2 mM spermidine, 40 mM DTT, 5 U/ml pyrophosphatase (Thermo Fisher Scientific), 200 U/ml RiboLock RNase inhibitor (Thermo Fisher Scientific), 5000 U/ml T7 RNA polymerase (Thermo Fisher Scientific).
The non-modified and modified nucleotide mixture was sequence-optimized (herein referred to as sequence-optimized IVT-mix) preferably in accordance with a procedure as described in WO2015/188933. Example 1. In short, the sequence-optimized IVT-mix comprised the four ribonucleoside triphosphates (NTPs) GTP, ATP, CTP and (modified) UTP in a sequence optimized ratio, wherein the fraction of each of the four ribonucleoside triphosphates in the sequence-optimized IVT-mix corresponded to the fraction of the respective nucleotide in the mRNA molecule to be synthetized, a buffer, a DNA template, and an RNA polymerase. Accordingly, for mRNAs i) and ii) as set out above, the concentrations of the nucleotides were 0.42 mM ATP, 0.57 mM CTP, 0.28 mM UTP, and 0.5 mM GTP (all Thermo Fisher Scientific).
Following RNA in vitro transcription, linear DNA templates were removed by Pulmozyme (Ratiopharm) (2500 U/ml, 3.2 mM CaCl2, 30 min at 37° C.). The obtained mRNAs i) and ii) as well as the mRNAs used in example 3, Table Ex-6; example 4, Table Ex-7; and example 5, FIG. 5 were purified using RP-HPLC (PureMessenger®; according to WO2008/077592). The obtained mRNAs used in example 3, Table Ex-8; example 4, Table Ex-9; and example 5, FIG. 6, were purified using Monarch RNA cleanup kit or Qiagen RNeasy mini kit according to the protocol of the manufacturer and used for dsRNA determination, capping analysis and in vitro expression experiments (example 5).
The capping efficacy can be analyzed by an HPLC assay of a 5′ fragment of mRNAs obtained according to the protocol of example 2. Thus, the peaks obtained in such an HPLC assay are indicative of i) correctly capped mRNA, ii) capped mRNA lacking a single nucleotide G (which is a typical side product if T7 RNA-polymerase is used), iii) uncapped mRNA and iv) further products of unknown structure. 5′ fragments for this kind of analysis are typically 15 to 20 nucleotides in length.
In order to provide fragments of a length of 18 nucleotides (assuming that the Cap-nucleotide is present, the fragment is 18 nucleotides long; for uncapped mRNAs, the fragment is accordingly 17 nucleotides long) for HPLC analysis, the mRNAs i) and ii) obtained in example 2 were first cleaved at the above-mentioned 5′ ribozyme cleavage site using a ribozyme designed to cleave at the relevant position. The ribozyme reaction contained 150 μM of the respective mRNA, 150 μM of the ribozyme, 50 mM NaCl and 0.625 mM EDTA in a total reaction volume of 120 μL. For the annealing reaction, the mixture was incubated in a PCR cycler for 3 min at 95° C., followed by a cool down ramp of 0.1° C. per second to a final temperature of 25° C., with a final incubation of 10 min at 25° C. After addition of 30 μL of a 200 mM MgCl2 solution buffered with 250 mM TRIS/HCl (pH 7.5), the reaction mix was incubated at 25° C. for 1 h. The reaction was stopped by addition of 24 μL of a 250 mM EDTA solution. RNA-only and Ribozyme-only controls were prepared per RNA and ribozyme, respectively.

[1] = Table Ex-8, mRNA capped with 15.23 mM cap0 analog, N1-Methyl-pseudouridine, purified with Monarch RNA cleanup kit or Qiagen RNeasy mini kit
[2] = Table Ex-6, mRNA capped with named cap analog (2.0 mM cap, 0.5 mM GTP), RP-HPLC purified mRNA

T1 sequence (P00573 whole entry): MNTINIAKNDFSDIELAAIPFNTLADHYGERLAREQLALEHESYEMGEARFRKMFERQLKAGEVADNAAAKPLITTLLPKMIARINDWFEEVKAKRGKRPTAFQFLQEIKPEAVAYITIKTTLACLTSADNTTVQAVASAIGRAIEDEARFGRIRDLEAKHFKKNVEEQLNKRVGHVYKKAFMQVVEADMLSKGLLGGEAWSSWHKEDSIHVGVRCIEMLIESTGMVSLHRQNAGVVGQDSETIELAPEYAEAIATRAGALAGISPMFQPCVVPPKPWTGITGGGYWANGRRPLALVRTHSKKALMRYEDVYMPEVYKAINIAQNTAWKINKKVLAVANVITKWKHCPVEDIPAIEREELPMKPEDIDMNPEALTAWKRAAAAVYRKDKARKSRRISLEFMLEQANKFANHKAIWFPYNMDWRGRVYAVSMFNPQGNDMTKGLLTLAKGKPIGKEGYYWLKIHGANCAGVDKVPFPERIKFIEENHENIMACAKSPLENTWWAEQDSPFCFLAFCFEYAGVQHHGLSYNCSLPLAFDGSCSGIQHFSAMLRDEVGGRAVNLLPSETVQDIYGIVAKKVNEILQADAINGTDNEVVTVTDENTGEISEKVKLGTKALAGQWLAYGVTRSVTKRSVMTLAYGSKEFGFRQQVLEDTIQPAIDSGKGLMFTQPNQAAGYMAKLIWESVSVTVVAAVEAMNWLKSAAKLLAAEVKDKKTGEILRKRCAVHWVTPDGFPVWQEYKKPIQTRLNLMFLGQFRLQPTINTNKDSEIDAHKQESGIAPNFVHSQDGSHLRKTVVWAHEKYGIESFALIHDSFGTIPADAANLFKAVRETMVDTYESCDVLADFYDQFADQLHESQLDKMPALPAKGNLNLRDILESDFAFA

| SMILES | Relative peak area Capped RNA minus G [1] [%] | Relative peak area Correctly capped RNA [1] [%] | Relative peak area Uncapped RNA [1] [%] | Relative peak area Unidentified peaks [1] [%] | Relative peak area Capped RNA minus G [2] [%] | Relative peak area Uncapped RNA [2] [%] | Relative peak area Unidentified peaks [2] [%] | Relative peak area Correctly capped RNA (Table Ex-6, mRNA capped with named cap analog (2.0 mM cap, 0.5 mM GTP), RP-HPLC purified mRNA, 5′ fragment, UV 260 nm) [%] |
| --- | --- | --- | --- | --- | --- | --- | --- | --- |
| C[n+]1cn(C[S+]([O-])CCCP(=O)(O)OP(=O)([O-])OP(=O)(O)OC[C@H]2O[C@@H](n3cnc4c(=O)[nH]c(N)nc43)[C@H](O)[C@@H]2O)c2nc(N)[nH]c(=O)c21 (stereo partly drawn) [Phosphonate Variant 2] | 6.3 | 76.9 | 15.0 | 1.8 |  |  |  |  |
| C[n+]1cn(CC[S+]([O-])CCP(=O)(O)OP(=O)([O-])OP(=O)(O)OC[C@H]2O[C@@H](n3cnc4c(=O)[nH]c(N)nc43)[C@H](O)[C@@H]2O)c2nc(N)[nH]c(=O)c21 (stereo partly drawn) [Phosphonate Variant 5] | 4.3 | 77.1 | 13.1 | 5.5 |  |  |  |  |
| C[n+]1cn(CCS(=O)(=O)CCP(=O)(O)OP(=O)([O-])OP(=O)(O)OC[C@H]2O[C@@H](n3cnc4c(=O)[nH]c(N)nc43)[C@H](O)[C@@H]2O)c2nc(N)[nH]c(=O)c21 [Phosphonate Variant 6] | 4.2 | 75.5 | 14.9 | 5.4 |  |  |  |  |
| C[n+]1cn(CCCS(=O)(=O)CCP(=O)(O)OP(=O)([O-])OP(=O)(O)OC[C@H]2O[C@@H](n3cnc4c(=O)[nH]c(N)nc43)[C@H](O)[C@@H]2O)c2nc(N)[nH]c(=O)c21 [Phosphonate Variant 9] | 4.4 | 73.4 | 15.7 | 6.5 |  |  |  |  |
| C[n+]1cn(CCSCP(=O)(O)OP(=O)([O-])OP(=O)(O)OC[C@H]2O[C@@H](n3cnc4c(=O)[nH]c(N)nc43)[C@H](O)[C@@H]2O)c2nc(N)[nH]c(=O)c21 [Phosphonate Variant 10] | 23.4 | 63.0 | 8.7 | 4.9 |  |  |  |  |
| C[n+]1cn(CCS(=O)(=O)CP(=O)(O)OP(=O)([O-])OP(=O)(O)OC[C@H]2O[C@@H](n3cnc4c(=O)[nH]c(N)nc43)[C@H](O)[C@@H]2O)c2nc(N)[nH]c(=O)c21 [Phosphonate Variant 12] | 8.6 | 75.5 | 12.2 | 3.7 |  |  |  |  |
| C[n+]1cn(CCCOP(=O)(O)OP(=O)([O-])OP(=O)(O)OC[C@H]2O[C@@H](n3cnc4c(=O)[nH]c(N)nc43)[C@H](O)[C@@H]2O)c2nc(N)[nH]c(=O)c21 [Propylene Cap] | 21.6 | 64.7 | 12.3 | 1.4 |  |  |  |  |
| C[n+]1cn(C2OC(COP(=O)(O)OP(=O)([O-])OP(=O)(O)OCC3OC(n4cnc5c(=O)[nH]c(N)nc54)C(O)C3O)C(O)C2O)c2nc(N)[nH]c(=O)c21 (stereo not drawn) [mCap, m7G(5′)ppp(5′)G, reference compound] | 12.2 | 63.3 | 20.3 | 4.2 | 8.6 | 19.8 | 10.1 | 61.5 |

Reference: patent US20250002524A1, “CAP ANALOGS HAVING AN ACYCLIC LINKER TO THE GUANINE DERIVATIVE NUCLEOBASE” (CureVac SE, priority 2021, published 2025)
